Test [1] deals with Puccinia recondita f. sp. tritici. In words: Test G: wheat leaf rust, spray after inoculation (curative) on wheat seedlings, visual disease rating. Format: in vivo. The settings on record: sprayed after inoculation, 100 = 100% disease control, 0 = no disease control. An excerpt:
(§1) A hyphen (-) indicates no test results.

Test [2] has as its system Blumeria graminis f. sp. tritici. Kind of test: Test I: wheat powdery mildew, preventive spray on wheat seedlings, visual disease rating. The settings on record: Blumeria graminis, in Triticum aestivum, read-out: Test I rating (disease control), wheat powdery mildew; 100 = 100% disease control, 0 = no disease control relative to the controls.
The next test relates to Septoria nodorum. Kind of test: Test E: Septoria glume blotch, preventive spray on wheat seedlings, visual disease rating. The settings on record: Parastagonospora nodorum, in Triticum aestivum, read-out: Test E rating (disease control), Septoria glume blotch; 100 = 100% disease control, 0 = no disease control relative to the controls.
In test [3] the test system is Puccinia recondita f. sp. tritici. In words: Test H: wheat leaf rust, preventive spray on wheat seedlings, visual disease rating. The settings on record: read-out: Test H rating (disease control), wheat leaf rust, sprayed the day before inoculation; 100 = 100% disease control, 0 = no disease control.
Description: (§2) General protocol for preparing test suspensions for Tests A-I: the test compounds were first dissolved in acetone in an amount equal to 3% of the final volume and then suspended at the desired concentration (in ppm) in acetone and purified water (50/50 mix by volume) containing 250 ppm of the surfactant Trem® 014 (polyhydric alcohol esters). The resulting test suspensions were then used in Tests A-I. Each test was conducted in triplicate, and the results were averaged. Spraying a 200 ppm test suspension to the point of run-off on the test plants was the equivalent of a rate of about 800 g/ha. Unless otherwise indicated, the rating values indicate a 200 ppm test suspension was used. (An asterisk “*” next to the rating value indicates a 40 ppm test suspension was used.)
The test suspension was sprayed to the point of run-off on wheat seedlings. The following day the seedlings were inoculated with a spore suspension of Puccinia recondita f. sp. tritici (the causal agent of wheat leaf rust) and incubated in a saturated atmosphere at 20° C. for 24 h, and then moved to a growth chamber at 20° C. for 6 days, after which time visual disease ratings were made.
The subject of the next test is Septoria tritici. Kind of test: Test F: wheat leaf blotch, preventive spray on wheat seedlings, visual disease rating. Format: in vivo. Also noted: Test F rating (disease control), value marked *: concentration or dose not given beside the values. The settings on record: for pest or weed control at 200 µg/mL: Zymoseptoria tritici, 100 = 100% disease control, 0 = no disease control relative to the controls.
Source text: as §1

Another test has as its system Botrytis cinerea. Kind of test: Test A: tomato Botrytis, preventive spray on tomato seedlings, visual disease rating. As to conditions: Botrytis cinerea, in Solanum lycopersicum, read-out: Test A rating (disease control), tomato Botrytis; 100 = 100% disease control, 0 = no disease control relative to the controls.
The test system of the next test is Alternaria solani. In words: Test B: tomato early blight, preventive spray on tomato seedlings, visual disease rating. The settings on record: Alternaria solani, in Solanum lycopersicum, read-out: Test B rating (disease control).

Structures are written as SMILES. Marks after values point to notes of the source that are not given here.

Description for Septoria nodorum: as §2
The test suspension was sprayed to the point of run-off on wheat seedlings. The following day the seedlings were inoculated with a spore suspension of Septoria nodorum (the causal agent of Septoria glume blotch) and incubated in a saturated atmosphere at 24° C. for 48 h, and then moved to a growth chamber at 20° C. for 9 days, after which time visual disease ratings were made.

For the compound `Cc1nn(C)c(Oc2ccc(C#N)cc2F)c1-c1ccc(F)cc1Br` [Compound 79, 4-[[4-(2-bromo-4-fluorophenyl)-1,3-dimethyl-1H-pyrazol-5-yl]oxy]-3-fluorobenzonitrile], the pest or weed control at 200 µg/mL in test [1] came out at 28%; in test [2], 100%; in the test with Septoria nodorum, 100%; in test [3] it was 100%; in the test with Botrytis cinerea it was 99%; in the test on Alternaria solani, 99%. Moreover, the “Test F rating (disease control), value marked *” value with Septoria tritici (rating marked with asterisk (*), other test condition, not explained in the text shown) is listed as 100* %.
Consider `Cc1nn(C)c(Nc2c(F)cc(F)cc2Cl)c1-c1ccc(F)cc1Br` [Compound 84, 4-(2-bromo-4-fluorophenyl)-N-(2-chloro-4,6-difluorophenyl)-1,3-dimethyl-1H-pyrazol-5-amine], for which the pest or weed control at 200 µg/mL amounted to 92% in test [1]; 100% in test [2]; 96% in the test with Septoria nodorum; 100% in test [3]; 100% in the test with Septoria tritici; 100% in the test on Botrytis cinerea. Further, the pest or weed control at 200 µg/mL in the test with Alternaria solani came out at 99%.
Turning to `Cc1nn(C)c(Nc2c(F)cc(F)cc2Cl)c1-c1c(F)cccc1F` [Compound 86, N-(2-chloro-4,6-difluorophenyl)-4-(2,6-difluorophenyl)-1,3-dimethyl-1H-pyrazol-5-amine], the pest or weed control at 200 µg/mL in test [1] was 0%; in test [2] it was 100%; in the test on Septoria nodorum it was 90%; in test [3] it was 100%; in the test with Septoria tritici, 100%; with Botrytis cinerea it was 100%. In the test on Alternaria solani, the pest or weed control at 200 µg/mL turned out to be 99%.
Turning to `Cc1nn(C)c(Nc2c(F)cc(Cl)cc2F)c1-c1ccc(C#N)cc1Cl` [Compound 111, 3-chloro-4-[5-[(4-chloro-2,6-difluorophenyl)amino]-1,3-dimethyl-1H-pyrazol-4-yl]benzonitrile], the pest or weed control at 200 µg/mL is 94% in test [1]; 99% in test [2]; 95% in the test on Septoria nodorum; 100% in test [3]; 100% in the test with Septoria tritici; 100% in the test on Botrytis cinerea. The pest or weed control at 200 µg/mL in the test with Alternaria solani worked out at 97%.
Take `Cc1nn(C)c(Nc2c(F)cc(F)cc2Cl)c1-c1ccc(F)cc1F` [Compound 117, N-(2-chloro-4,6-difluorophenyl)-4-(2,4-difluorophenyl)-1,3-dimethyl-1H-pyrazol-5-amine]: the pest or weed control at 200 µg/mL in test [1] came out at 91%; in test [2] it was 100%; in the test on Septoria nodorum, 97%; in test [3], 100%; in the test with Septoria tritici, 100%; in the test on Botrytis cinerea, 100%. Further, the pest or weed control at 200 µg/mL with Alternaria solani came out at 100%.
For `Cc1nn(C)c(Nc2ccc(F)cc2Br)c1-c1ccc(F)cc1F` [Compound 118, N-(2-bromo-4-fluorophenyl)-4-(2,4-difluorophenyl)-1,3-dimethyl-1H-pyrazol-5-amine], the pest or weed control at 200 µg/mL is 75% in test [1]; 100% in test [2]; 69% in the test with Septoria nodorum; 97% in test [3]; 100% with Septoria tritici; 100% in the test with Botrytis cinerea. The pest or weed control at 200 µg/mL with Alternaria solani was determined as 93%.
`Cc1nn(C)c(C(O)c2ccc(F)cc2F)c1-c1ccc(F)cc1Cl` (stereo not drawn) [Compound 122, 4-(2-chloro-4-fluorophenyl)-α-(2,4-difluorophenyl)-1,3-dimethyl-1H-pyrazole-5-methanol]: the pest or weed control at 200 µg/mL in test [1] came to 96%; in test [2] it was 99%; with Septoria nodorum, 92%; in test [3] it was 100%; with Septoria tritici, 100%; with Botrytis cinerea, 100%. In addition, in the test on Alternaria solani, the pest or weed control at 200 µg/mL worked out at 99%.
